Key:
[1] = Inhibition of HCV NS3 protease; set-up: species or system Hepacivirus hominis
Hepatitis C virus = assay: Antiviral activity against HCV in human Huh7 cells after 72 hrs by cell based luciferase reporter assay; type: functional, organism-based, Hepacivirus hominis; details: Huh-7, 72 h

Compound | IC50 [1] [nM] | EC50 (Hepatitis C virus) [nM]
C=C[C@@H]1C[C@]1(NC(=O)[C@@H]1C[C@@H](Oc2cc(-c3ccccc3)nc3cc(OC)ccc23)CN1C(=O)[C@@H](NC(=O)OC1CCCC1)C(C)(C)C)C(=O)O | 14 | 550
C=C[C@@H]1C[C@]1(NC(=O)[C@@H]1C[C@@H](n2cc(-c3ccc4c(c3)CCO4)nn2)CN1C(=O)[C@@H](NC(=O)OC1CCCC1)C(C)(C)C)C(=O)O | 130 | –
C=C[C@@H]1C[C@]1(NC(=O)[C@@H]1C[C@@H](n2cc(-c3ccc4c(c3)OCO4)nn2)CN1C(=O)[C@@H](NC(=O)OC1CCCC1)C(C)(C)C)C(=O)NS(=O)(=O)C1CC1 | < 3 | 190
C=C[C@@H]1C[C@]1(NC(=O)[C@@H]1C[C@@H](n2cc(-c3cccc(Cl)c3)nn2)CN1C(=O)[C@@H](NC(=O)OC1CCCC1)C(C)(C)C)C(=O)NS(=O)(=O)C1CC1 | < 3 | 170
C=C[C@@H]1C[C@]1(NC(=O)[C@@H]1C[C@@H](n2cc(-c3ccc4c(c3)CCO4)nn2)CN1C(=O)[C@@H](NC(=O)OC1CCCC1)C(C)(C)C)C(=O)NS(=O)(=O)C1CC1 | < 3 | 230
C=C[C@@H]1C[C@]1(NC(=O)[C@@H]1C[C@@H](n2ccnn2)CN1C(=O)[C@@H](NC(=O)OC1CCCC1)C(C)(C)C)C(=O)O | 59000 | –
C=C[C@@H]1C[C@]1(NC(=O)[C@@H]1C[C@@H](n2cc(-c3ccc(S(C)(=O)=O)cc3)nn2)CN1C(=O)[C@@H](NC(=O)OC1CCCC1)C(C)(C)C)C(=O)NS(=O)(=O)C1CC1 | < 3 | > 7300
C=C[C@@H]1C[C@]1(NC(=O)[C@@H]1C[C@@H](n2cc(-c3ccc(-c4ccccc4)cc3)nn2)CN1C(=O)[C@@H](NC(=O)OC1CCCC1)C(C)(C)C)C(=O)O | 860 | –
C=C[C@@H]1C[C@]1(NC(=O)[C@@H]1C[C@@H](n2cc(-c3ccsc3)nn2)CN1C(=O)[C@@H](NC(=O)OC1CCCC1)C(C)(C)C)C(=O)NS(=O)(=O)C1CC1 | < 3 | 1220
C=C[C@@H]1C[C@]1(NC(=O)[C@@H]1C[C@@H](n2cc(-c3ccccc3)nn2)CN1C(=O)[C@@H](NC(=O)OC1CCCC1)C(C)(C)C)C(=O)NS(=O)(=O)C1CC1 | 2.7 | 430
C=C[C@@H]1C[C@]1(NC(=O)[C@@H]1C[C@@H](n2cc(-c3cc(Cl)cc(Cl)c3)nn2)CN1C(=O)[C@@H](NC(=O)OC1CCCC1)C(C)(C)C)C(=O)NS(=O)(=O)C1CC1 | < 3 | 140
C=C[C@@H]1C[C@]1(NC(=O)[C@@H]1C[C@@H](n2cc(-c3cc(Br)cc(Br)c3)nn2)CN1C(=O)[C@@H](NC(=O)NC1CCCC1)C(C)(C)C)C(=O)NS(=O)(=O)C1CC1 | – | 105
C=C[C@@H]1C[C@]1(NC(=O)[C@@H]1C[C@@H](n2cc(-c3ccccc3)nn2)CN1C(=O)[C@@H](NC(=O)OC1CCCC1)C(C)(C)C)C(=O)O | 700 | –
C=C[C@@H]1C[C@]1(NC(=O)[C@@H]1C[C@@H](n2cc(-c3cccc4ccccc34)nn2)CN1C(=O)[C@@H](NC(=O)OC1CCCC1)C(C)(C)C)C(=O)O | 890 | –
C=C[C@@H]1C[C@]1(NC(=O)[C@@H]1C[C@@H](n2cc(-c3ccc(N(C)C)cc3)nn2)CN1C(=O)[C@@H](NC(=O)OC1CCCC1)C(C)(C)C)C(=O)NS(=O)(=O)C1CC1 | < 3 | 270
C=C[C@@H]1C[C@]1(NC(=O)[C@@H]1C[C@@H](n2cc(-c3ccc(OC)cc3)nn2)CN1C(=O)[C@@H](NC(=O)OC1CCCC1)C(C)(C)C)C(=O)O | 360 | –
C=C[C@@H]1C[C@]1(NC(=O)[C@@H]1C[C@@H](n2cc(C3CCCCC3)nn2)CN1C(=O)[C@@H](NC(=O)OC1CCCC1)C(C)(C)C)C(=O)O | 4300 | –
C=C[C@@H]1C[C@]1(NC(=O)[C@@H]1C[C@@H](n2cc(-c3ccccn3)nn2)CN1C(=O)[C@@H](NC(=O)OC1CCCC1)C(C)(C)C)C(=O)O | 3700 | –
C=C[C@@H]1C[C@]1(NC(=O)[C@@H]1C[C@@H](n2cc(-c3cc(Br)cc(Br)c3)nn2)CN1C(=O)[C@@H](NC(=O)OC1CCCC1)C(C)(C)C)C(=O)NS(=O)(=O)C1CC1 | < 3 | 150
C=C[C@@H]1C[C@]1(NC(=O)[C@@H]1C[C@@H](n2cc(-c3cc(Br)cc(Br)c3)nn2)CN1C(=O)[C@@H](NC(=O)OC1CCCC1)C(C)(C)C)C(=O)NS(=O)(=O)C1(C)CC1 | – | 77
C=C[C@@H]1C[C@]1(NC(=O)[C@@H]1C[C@@H](n2cc(-c3ccc(Cl)cc3)nn2)CN1C(=O)[C@@H](NC(=O)OC1CCCC1)C(C)(C)C)C(=O)NS(=O)(=O)C1CC1 | < 3 | 680
C=C[C@@H]1C[C@]1(NC(=O)[C@@H]1C[C@@H](n2nncc2-c2ccccc2)CN1C(=O)[C@@H](NC(=O)OC1CCCC1)C(C)(C)C)C(=O)O | 14000 | –
C=C[C@@H]1C[C@]1(NC(=O)[C@@H]1C[C@@H](n2cc(-c3ccccc3Cl)nn2)CN1C(=O)[C@@H](NC(=O)OC1CCCC1)C(C)(C)C)C(=O)NS(=O)(=O)C1CC1 | < 3 | 220
C=C[C@@H]1C[C@]1(NC(=O)[C@@H]1C[C@@H](n2cc(-c3cccc(Br)c3)nn2)CN1C(=O)[C@@H](NC(=O)OC1CCCC1)C(C)(C)C)C(=O)NS(=O)(=O)C1CC1 | < 3 | 210
C=C[C@@H]1C[C@]1(NC(=O)[C@@H]1C[C@@H](n2cc(-c3ccc(Cl)cc3)nn2)CN1C(=O)[C@@H](NC(=O)OC1CCCC1)C(C)(C)C)C(=O)O | 790 | –
